Measurements published in patent US8399682B2, “Substituted (pyrazolylcarbonyl)imidazolidinones and their use” (AiCuris GmbH & Co. KG, priority 2008, dated 2013).

Tests used:
reverse transcriptase = target: T1, reverse transcriptase (Human immunodeficiency virus type 1 group M subtype B, UniProt P04585); experiment: Biochemical Reverse Transcriptase Assay (Reverse Transcriptase Assay, colorimetric, Roche); conditions: read-out: IC50 (nM) RT Assay
T1 construct: negative control (mixture without reverse transcriptase); purchased Roche Diagnostics GmbH, Mannheim, Germany
Protocol: The “Reverse Transcriptase Assay, colorimetric” (Roche Diagnostics GmbH, Mannheim, Germany) is used in accordance with the manufacturer's information. The test substances are dissolved in DMSO and are used in the test diluted in 5-fold steps (final DMSO concentration 1%). The resulting values of the photometric evaluation (405/492 nm) are less than 0.1 for the negative control (mixture without reverse transcriptase) and are in the region of 1.5 for the positive control (mixture without test substance). The IC50 values of the test substances are determined as the concentration of the test substance dilution at which the measured optical density is 50% of the positive control.

HIV-1LAI = experiment: H9 assay with wild-type HIV-1 (HIV-1LAI supernatant infection, AlamarBlue); assay type: cell-based; conditions: Human immunodeficiency virus 1, H9 cells, 10% FCS
Protocol: For the mixture for a 96-well MTP, 3 million PBLs are pelleted, suspended in 1 ml of RPMI 1640 medium/10% FCS and incubated together with a suitable amount of HIV-1LAI (NIH AIDS Research & Reference Reagent Program, Germantown, USA) at 37° C. for 2 hours (pellet infection). Unadsorbed viruses are subsequently washed out with PBS, and the infected cells are pelleted again and suspended in 18 ml of RPMI 1640 medium/10% FCS/interleukin-2 (40 U/ml). 180 μl thereof are pipetted into each well of a white 96-well MTP with 20 μl of test substance in suitable dilution. Alternatively, after preparation of the substance dilutions in the MTP, the HIV is pipetted in together with the cells and is not washed out again (supernatant infection). In order to avoid edge effects, the wells at the edge of the MTP are not used for substance dilutions. The second vertical row of the MTP contains only infected cells (virus control) and the eleventh vertical row only uninfected cells (cell control), in each case in RPMI 1640 medium/10% FCS/interleukin-2 (40 U/ml). The other wells of the MTP contain the compounds of the invention in various concentrations starting from the third vertical row, from which the test substances are diluted in 3-fold steps up to the tenth vertical row 3^7-fold. The test substances are dissolved in DMSO, whereby the final DMSO concentration in the test mixture eventually is 1%. The test mixtures are incubated at 37° C./5% CO2. After 5 and 7 days, 50 μl of cell-free supernatant are removed from each well to determine the amount of p24 present by means of a p24 ELISA (HIV-1 p24^CA Antigen Capture Assay Kit, NCI-Frederick Cancer Research and Development Center, Frederick, USA). From the resulting values of the photometric evaluation (450/620 nm) the EC50 values of the test substances are determined as the concentration at which the amount of p24 is 50% of the untreated infected cells.
Alternatively, H9 cells (ATCC, Wesel, Germany) are employed instead of PBLs for testing the test substances. H9 cells are incubated in RPMI 1640 medium with 2% or 10% FCS as a HIV-1LAI supernatant infection at 37° C./5% CO2, (20 μl of substance dilution and 80 μl of cells/virus per well) in accordance with the pattern described above for 5 days. Subsequently, 10 μl of AlamarBlue (Invitrogen, Karlsruhe, Germany) are added to each well, and the MTPs are incubated at 37° C. for 3 hours before the fluorimetric evaluation takes place (544/590 nm). The resulting values are about 40 000 for the untreated uninfected cells and about 7000 for the untreated infected cells. In the low concentration range, the EC50 values of the test substances are determined as the concentration at which the fluorescence is 50% of the untreated uninfected cells (in each case subtracting the values of the untreated infected cells). In addition, in the high concentration range, the CC50 values of the test substances are determined as the concentration at which the fluorescence is 50% of the untreated uninfected cells (in each case subtracting the values of the untreated infected cells).

HIV-1NL4-3 wt = experiment: Light assay with wild-type HI reporter virus in MT4 7F2 cells; assay type: cell-based; conditions: Human immunodeficiency virus 1, 2% FCS
Protocol: (§1) For the mixture for a 96-well MTP, 3 million MT4 7F2 cells are pelleted, suspended in 1 ml of RPMI 1640 medium without phenol red (Invitrogen, Karlsruhe, Germany)/10% FCS/10% AIM-V (Invitrogen, Karlsruhe, Germany) and incubated together with a suitable amount of the corresponding HIV-1NL4-3 reporter virus at 37° C. for 2 hours (pellet infection). Unadsorbed viruses are subsequently washed out with PBS, and the infected cells are pelleted again and suspended in 8 ml of RPMI 1640 medium without phenol red/2% or 10% FCS/10% AIM-V. 80 μl thereof are pipetted into each well of a white 96-well MTP with 20 μl of test substance in suitable dilution. To avoid edge effects, the wells on the edge of the MTP are not used for substance dilutions. The second vertical row of the MTP contains only infected cells (virus control) and the eleventh vertical row only uninfected cells (cell control), in each case in RPMI 1640 medium without phenol red/2% or 10% FCS/10% AIM-V. The other wells of the MTP contain the compounds of the invention in various concentrations starting from the third vertical row, from which the test substances are diluted in 3-fold steps up to the tenth vertical row 3^7-fold. The test substances are dissolved in DMSO, whereby the final DMSO concentration in the test mixture eventually is 1%. The test mixtures are incubated at 37° C./5% CO2 for five days and, after the addition of 15 μl of Lu164 substrate (5 mg/ml coelenterazine dissolved in 30 μM glutathione/DMSO, 100 mM NaCl, 1M MES, 100 mM glutathione), evaluated by luminometry. The resulting values are in the region of 1 000 000 RLUs (relative light units) for the virus control and 300 to 400 RLUs for the cell control. The EC50 values of the test substances are determined as the concentration at which the virus replication measured in RLUs is 50% of the untreated infected cells.

HIV-1NL4-3 K103N-Y181C = experiment: Light assay with inhibitor-resistant HI reporter virus in MT4 7F2 cells; assay type: cell-based; conditions: Human immunodeficiency virus 1, read-out: EC50 (nM) MT4 7F2 cells HIV-1NL4-3 K103N-Y181C 2% FCS
Protocol: as §1

| Compound | IC50 (reverse transcriptase) [nM] | EC50 (HIV-1LAI) [nM] | EC50 (HIV-1NL4-3 wt) [nM] | EC50 (HIV-1NL4-3 K103N-Y181C) [nM] |
| --- | --- | --- | --- | --- |
| O=C1CN(C(=O)c2cc(-c3cccc(Cl)c3)n(-c3cccc(Cl)c3)n2)CN1 [Example 4, 1-{[1,5-Bis(3-chlorophenyl)-1H-pyrazol-3-yl]carbonyl}imidazolidin-4-one] | 75 | 11 | 1 | 45 |
| O=C1CN(C(=O)c2cc(-c3cccc(F)c3)n(-c3ccc(F)c(Cl)c3)n2)CN1 [Example 26, 1-{[1-(3-Chloro-4-fluorophenyl)-5-(3-fluorophenyl)-1H-pyrazol-3-yl]carbonyl}imidazolidin-4-one] | 104 | 11 | 2 | 65 |
| N#Cc1cc(-n2nc(C(=O)N3CNC(=O)C3)cc2-c2cccc(Cl)c2)ccc1F [Example 53, 1-{[5-(3-Chlorophenyl)-1-(3-Cyano-4-fluorophenyl)-1H-pyrazol-3-yl]carbonyl}imidazolidin-4-one] | 46 | 1 | 0.3 | 33 |
| O=C1CN(C(=O)c2cc(-c3cccc(OCCCN4CCOCC4)c3)n(-c3cccc(Cl)c3)n2)CN1 [Example 37, 1-({1-(3-Chlorophenyl)-5-[3-(3-morpholin-1-ylpropoxy)phenyl]-1H-pyrazol-3-yl}carbonyl)imidazolidin-4-one] | 175 | 33 | 18 | 2000 |
| N#Cc1cccc(-n2nc(C(=O)N3CNC(=O)C3)cc2-c2cccc(Cl)c2)c1 [Example 56, 3-{5-(3-Chlorophenyl)-3-[(4-oxoimidazolidin-1-yl)carbonyl]-1H-pyrazol-1-yl}benzenecarbonitrile] | 14 | 0.1 | 0.03 | 12 |
| N#Cc1cc(F)cc(-c2cc(C(=O)N3CNC(=O)C3)nn2-c2ccc(F)c(Cl)c2)c1 [Example 62, 3-{1-(3-Chloro-4-fluorophenyl)-3-[(4-oxoimidazolidin-1-yl)carbonyl]-1H-pyrazol-5-yl}-5-fluorobenzenecarbonitrile] | 49 | 9 | 2 | 63 |
